According to ChEMBL document CHEMBL3507680, “University of Dundee, Gates Library screen for HepG2 cell viability”:

Assay: Human HepG2 cell viability assay in 384 well format
Assay type: toxicity, cell-based
Parameters: dose 125 nL, time 70.5 hour; concentration not given beside the values
Settings: HepG2 cells, read-out: Inhibition

Compound	cytotoxicity at 70.5 h [%]
O=C(Nc1ccccc1)C1CN(CC2CC2)CC12CCOCC2 (stereo not drawn)	-17.6
c1csc(-c2nc(CN3CCCCC3Cn3cccn3)co2)c1 (stereo not drawn)	-58
CC(=O)NCc1ccc(C(=O)NC2CCc3nc(C)cn3C2)o1 (stereo not drawn)	-3.32
N#Cc1ccc(CNC(=O)C2=NN(c3ccccc3)C(=O)CN2)cc1	-7.68
CCN1C(=O)CC[C@@H]2N(C(=O)CCn3nccc3C)CCCC[C@@]21C	-6.96
CC(=O)N1CC(Cc2nccc3ccn(C)c23)C1	-5.15
CCOCC1CN(C(=O)N2CCCC2)Cc2cnn(CC)c21 (stereo not drawn)	-4.21
CCn1ccnc1CN1CCCN(C(=O)c2cnn(C)c2)CC1	-7.1
Cc1nc(C(=O)Nc2cc(N3CCNC3=O)ccc2Cl)cs1	-2.48
Cn1nnc2c1C(COCc1cccnc1)CN(Cc1ccoc1)C2 (stereo not drawn)	-16.5
Cc1ccc(C(=O)CN2C(=O)c3ccccc3CS2(=O)=O)c(C)c1	-10.2
CC(NC(=O)CCc1cccs1)c1nnc2n1CCC2 (stereo not drawn)	-36.3
CC(C)n1cnnc1CN(C)C(=O)c1ccccc1-n1cncn1	0.803
N#Cc1cccc(N2CCCC3(C2)CN(c2ncccn2)CCO3)n1 (stereo not drawn)	-6.81
COc1ncccc1CN1C[C@@H]2COC[C@]2(CNC(=O)c2ccno2)C1	-15.5
CN(C)C(CNC(=O)c1nc(N2CCOCC2)ncc1Cl)c1ccco1 (stereo not drawn)	-19.3
CN(C)Cc1cnc(C2CCN(C(=O)c3ccc(F)cc3)C2)[nH]1 (stereo not drawn)	-6.91
CC(C)c1noc(CCCC(=O)NC(C)c2nnc3n2CCC3)n1 (stereo not drawn)	-4.68
Cc1cccc(N(CC(=O)N2CCCCC2)C(=O)C2CCCO2)c1 (stereo not drawn)	2.3
CC(=O)CSc1sc2c(O)cc(=O)[nH]c2c1C(N)=O	-12.7
CC(C)CN1CCN(C(=O)c2cc(=O)c3ccccc3[nH]2)CC1	-2.68
O=C1CCCN1Cc1nnc(SCc2ccc3c(c2)CCC3)o1	9.34
Fc1ccc2c(c1)C1(CCNCC1)CC2OCC1CC1 (stereo not drawn)	-7.69

Compound	cytotoxicity at 70.5 h [%]
O=C1CCN(C(=O)NCCCc2ccc(Cl)cc2Cl)CCN1	-7.65
CCC(C)(C)NC(=O)C[S+]([O-])Cc1csc(C2CCCC2)n1 (stereo not drawn)	11
Cc1c(C(=O)N2CC(O)C2)nnn1-c1cccc2cnccc12	-8.03
O=C(CN1CCC2(CCCCC2)C1)NCC(F)(F)F	-9.38
COc1c(C2CCCN2C(=O)c2ccc3cc[nH]c3c2)c(C)nn1C (stereo not drawn)	-2.48
O=C(Cc1ccccn1)N1CCC2(CC1)CC(Oc1ccccn1)CO2 (stereo not drawn)	-9.02
CC(=O)c1cccc(NC(=O)NCCCc2nc(C(C)C)no2)c1	-1.88
COCC1CN(Cc2ccsc2)Cc2nn(C)cc21 (stereo not drawn)	16.3
O=c1c2c(ncn1CCCO)nc1n2CCC1	-1.36
CC(c1cccs1)N(C)C(=O)c1cc(CN(C)Cc2ccccc2)on1 (stereo not drawn)	-4.76
Cc1cc(C)nc(Nc2cncc(C3CCCN(S(C)(=O)=O)C3)n2)n1 (stereo not drawn)	33.8
COCC1CC2(CCN(Cc3ccoc3)CC2)CN1Cc1ccccn1 (stereo not drawn)	16.1
COc1cc(C(=O)Nc2nc(C)no2)ccc1C	36.1
O=C(NC1CC1)[C@H]1C[C@H]2OCC[C@H]2N(Cc2cccc3ccccc23)C1	-0.842
Cc1ncnc(NCc2cc3n(n2)CCCN(S(C)(=O)=O)C3)c1C	-12.3
CCOCCN(C)C(c1cccnc1)c1ccc(F)cc1F (stereo not drawn)	-3.04
Cc1cc(NC(=O)NCCc2ccc(S(N)(=O)=O)cc2)n(C)n1	-6.71
CC(C)CC(=O)Nc1c(-c2ccc(F)cc2)ncn1C	9.48
CC(C)(CNC(=O)CCOc1cccc(F)c1)C(N)=O	2.27
CCOCCn1nc(C)cc1C(=O)N1CC[C@](C)(O)[C@H](C)C1	-8.61
Cc1nc(N)ncc1C(=O)N1CCCC1(C)C(=O)N(C)C (stereo not drawn)	-3.98
O=C(CCc1ccncc1)Nc1ccc(OCC2CCOCC2)cc1	-13.6
Cc1cc(C)n(C2CN(CCC(=O)NCCc3ccccc3)C2)n1	-1.03

Compound	cytotoxicity at 70.5 h [%]
Cc1nn(C)c2c(=O)n(CC(=O)NCCC3=CCCCC3)ccc12	-1.87
O=C(CCC1CCCC1)NCCn1nc(C2CCNC2)c2nccnc21 (stereo not drawn)	34.9
OCC(CO)N1CCCC(Cc2cnc(Nc3ccccn3)cn2)C1 (stereo not drawn)	-3.34
CC(C)c1nnc(CN2CCCC3(CC2)CN(C)C(=O)O3)o1 (stereo not drawn)	-3.73
CS(=O)(=O)NCCC(=O)Nc1ccccc1N1CCc2ccccc21	-22.1
Cc1nonc1CN(C)c1nc(-c2cccnc2)nc2c1CCNC2	0.678
COc1ccc(-c2nnc(SC(C)C(=O)NC3CC3)[nH]2)c(OC)c1 (stereo not drawn)	30.9
Cc1noc(CN(Cc2ccc3c(c2)OCCO3)Cc2ccco2)n1	-3.69
Cc1nsc(N2CCCN(C(=O)NCc3cc(C)on3)CC2)n1	-1.32
Cc1noc(C)c1CN(C)c1nc(C2CCCC2)nc2c1cnn2C	9.62
COCC(=O)N1C[C@@H](c2cccc(F)c2)[C@H]2[C@H]1CCCCCN2C(C)=O	7.2
Cc1nc(C)n(CC2CCCCN2CC(=O)Nc2ccncc2)n1 (stereo not drawn)	16.8
Cc1cnn(CC2CCCCN2C(=O)c2ccnc(N(C)C)c2)c1 (stereo not drawn)	-17.7
Cc1ccc(C)c(OCCC(=O)N2CCCN(CC(N)=O)CC2)c1	-7.33
CN(Cc1ccco1)C(=O)C1CSCN1C(=O)C1CCC1 (stereo not drawn)	-8.79
O=C(c1cnccn1)N1CCCC2(CCCN2Cc2cccnc2)C1 (stereo not drawn)	-1.76
CN(CC(=O)Nc1ccncc1)CC1CCCN1c1cccnn1 (stereo not drawn)	-11.4
CN(C)c1cc2c(nn1)CCN(C(=O)C1CCCc3ccccc31)C2 (stereo not drawn)	-8.02
Cc1ccc(N2CCCC3(COCCN(c4ccccn4)C3)C2)nn1 (stereo not drawn)	-8.01
CC(O)(CNC(=O)c1cccnc1-n1cccn1)c1ccsc1 (stereo not drawn)	-7.4
CC(=O)Nc1nc(C2CCN(C(=O)Cc3ccccc3)CC2)cs1	-5.09
CN(CCCc1cnn(C)c1)C(=O)C1CCCN(C2CCCC2)C1 (stereo not drawn)	7.47
CC(=O)N1CCCC(C(=O)NCCc2nc(Cc3ccccc3)no2)C1 (stereo not drawn)	-13.3

Compound	cytotoxicity at 70.5 h [%]
CC(C)NC(=O)N1CCC(c2nnc3n2CCNC3)CC1	16.3
Cc1ccccc1CC(=O)NS(=O)(=O)c1cccc2cnccc12	-40.8
COC(CNC(=O)c1ccc(NC(C)=O)cc1)c1cccc(Cl)c1 (stereo not drawn)	-5.6
O=S(=O)(c1ccc(F)cc1)N1CCCC(c2nccs2)C1 (stereo not drawn)	-2.41
COCc1nn(C(C)C)c2c1CCN(Cc1ccc(C)o1)C2	-4.09
O=C(c1ccoc1)N1C[C@@H]2CN(c3ncccn3)C[C@@H]2C1	-4.89
Cc1cc(CC(C)NC(=O)c2cccc(CC3CCNCC3)c2)[nH]n1 (stereo not drawn)	-2.93
COc1cc(C)cc(OC)c1C(C(=O)O)N(C)Cc1c(C)nn(C)c1C (stereo not drawn)	-14.7
CNC(=O)c1cn[nH]c1C1CCN(Cc2sccc2C)C1 (stereo not drawn)	-5.33
Cc1nc(CN(C)C2CCN(CCCOc3ccccc3C)C2)no1 (stereo not drawn)	0.379
CNC(=O)CC1CC2(CCN(S(C)(=O)=O)CC2)c2ccccc21 (stereo not drawn)	-0.621
Cc1nc(N(C)C)ncc1C(=O)NCCc1csc(-c2cnccn2)n1	-6.1
Cc1nnc(SCC(=O)N2CCc3[nH]nc(C4CCC4)c3C2)o1	8.24
Cc1ncc2c(n1)CN(Cc1nnc(-c3ccccc3)o1)CC2	-7.67
CSCC[C@H](NC(=O)Cn1ccc2ccc(Cl)cc21)C(=O)O	-16.7
Cn1nnc2c1CCN(S(C)(=O)=O)C2COCC1CC1 (stereo not drawn)	0.405
CCS(=O)(=O)N1CCC2(CC1)CC1(CCN(CCOC)CC1)C(=O)N2C	-6.01
CCO[C@H]1C[C@@H](O)C12CCN(C1Cc3ccccc3C1)CC2	-10.5
CCSCC(C)NCc1cc(-c2ccco2)on1 (stereo not drawn)	-10.3
CCc1ccc(CNC(=O)CCNS(=O)(=O)c2cn(C)c(C)n2)s1	-7.93
O=C1CO[C@H]2CN(Cc3ccc(F)c(F)c3)C[C@H]2N1	-12.7
CC(C)NC(=O)[C@@H](NC(=O)N1CCN(c2ccc(Cl)cc2)CC1)C(C)C	6.91
O=C(CCc1nc(C2CC2)no1)c1ccc2c(c1)OCCO2	-16.9

Compound	cytotoxicity at 70.5 h [%]
Cc1nc[nH]c1CN1CCc2nc3scc(C)c3c(=O)n2CC1	-1.43
CN(Cc1ccc2c(c1)OCO2)Cc1cscn1	10.1
NC(=O)NC1CCN(Cc2ccc3c(c2)CCC3)CC1	-5.94
CN(c1cccc(C#N)c1)S(=O)(=O)c1cc(C(=O)O)ccc1Cl	-12.6
CCSCCC(=O)NC1CCN(C(C)c2ccccc2)CC1 (stereo not drawn)	-10.7
COCc1cc(CNCc2c(C)n(CC(N)=O)c3ccccc23)n[nH]1	-9.7
COc1ccccc1NC(=O)CC(C)NCc1scnc1C (stereo not drawn)	-4.53
O=C(c1nc2sccn2c1-c1ncc[nH]1)N1CCCCC1	-17.8
CCOCC1CN(C(=O)c2cc(C)oc2C)Cc2c1cnn2C (stereo not drawn)	-0.121
Cc1nc(C)n(CC2CCCN2Cc2nc3ccccc3s2)n1 (stereo not drawn)	-5.56
CN(Cc1cnn(C)c1)C(=O)CCc1ccc2c(c1)OCO2	-58.4
CC1(C)CC(=O)c2cnc3nc(N4CCOCC4)nc(O)c3c2C1	-1.04
c1ccc(CO[C@H]2CO[C@@]3(CCCN(Cc4cccnc4)C3)C2)nc1	-24.8
CCCS(=O)(=O)N1CCC2(CN(c3cnn(C)c3)C(=O)CN2C)C1 (stereo not drawn)	0.667
COc1cccc2sc(OC3CN(C(=O)C4=COCCO4)C3)nc12	-8.14
O=C(Nc1nncs1)N1CCC(CCc2ccc(O)cc2)CC1	-14.7
COCC(=O)NCc1cc(=O)n2c(n1)CN(Cc1ccccc1)CCC2	2.31
CN(C)C(=O)N1CCCC(C(=O)N(C)Cc2cnc(N)nc2)C1 (stereo not drawn)	-10.7
CC(C)c1nnc2n1CC(CNCc1nc3ccccc3o1)CC2 (stereo not drawn)	2.4
COC1(CNC(=O)c2ccsc2)CCSC1 (stereo not drawn)	-13
CN(C)Cc1nc(C(=O)N2CCCC(COc3ccc(F)cc3)C2)cs1 (stereo not drawn)	-7.27
